Experiments:
786–0 = assay: NCI-60 screen; assay type: cell-based; details: Homo sapiens, Renal Cancer
Method: (§1) All the synthesized compounds 51–76 were tested at a 10^–5 M concentration for their antitumor activity on the full NCI-60 panel comprising cancer cell lines derived from nine human cancer cell types (leukemia, non-small-cell lung, colon, central nervous system, melanoma, ovarian, renal, prostate, and breast).[50]

A549/ATCC = assay: NCI-60 screen; assay type: cell-based; details: Homo sapiens, Non-Small-Cell Lung Cancer
Method: as §1

BT-549 = assay: NCI-60 screen; assay type: cell-based; details: Homo sapiens, Breast Cancer
Method: as §1

HCC-2998 = assay: NCI-60 screen; assay type: cell-based; details: Homo sapiens, Colon Cancer
Method: as §1

HCT-116 = assay: NCI-60 screen; assay type: cell-based; details: Homo sapiens, Colon Cancer
Method: as §1

HS 578T = assay: NCI-60 screen; assay type: cell-based; details: Homo sapiens, Breast Cancer
Method: as §1

MCF7 = assay: NCI-60 screen; assay type: cell-based; details: Homo sapiens, Breast Cancer
Method: as §1

MDA-MB-468 = assay: NCI-60 screen; assay type: cell-based; details: Homo sapiens, Breast Cancer
Method: as §1

MOLT-4 = assay: NCI-60 screen; assay type: cell-based; details: Homo sapiens, Leukemia
Method: as §1

NCI/ADR-RES = assay: NCI-60 screen; assay type: cell-based; details: Homo sapiens, Ovarian Cancer
Method: as §1

OVCAR-4 = assay: NCI-60 screen; assay type: cell-based; details: Homo sapiens, Ovarian Cancer
Method: as §1

OVCAR-5 = assay: NCI-60 screen; assay type: cell-based; details: Homo sapiens, Ovarian Cancer
Method: as §1

OVCAR-8 = assay: NCI-60 screen; assay type: cell-based; details: Homo sapiens, Ovarian Cancer
Method: as §1

RXF 393 = assay: NCI-60 screen; assay type: cell-based; details: Homo sapiens, Renal Cancer
Method: as §1

SF-295 = assay: NCI-60 screen; assay type: cell-based; details: Homo sapiens, CNS Cancer
Method: as §1

SF-539 = assay: NCI-60 screen; assay type: cell-based; details: Homo sapiens, CNS Cancer
Method: as §1

SK-MEL-28 = assay: NCI-60 screen; assay type: cell-based; details: Homo sapiens, Melanoma
Method: as §1

SK-MEL-2 = assay: NCI-60 screen; assay type: cell-based; details: Homo sapiens, Melanoma
Method: as §1

SK-MEL-5 = assay: NCI-60 screen; assay type: cell-based; details: Homo sapiens, Melanoma
Method: as §1

SN12C = assay: NCI-60 screen; assay type: cell-based; details: Homo sapiens, Renal Cancer
Method: as §1

SNB-19 = assay: NCI-60 screen; assay type: cell-based; details: Homo sapiens, CNS Cancer
Method: as §1

SNB-75 = assay: NCI-60 screen; assay type: cell-based; details: Homo sapiens, CNS Cancer
Method: as §1

SR = assay: NCI-60 screen; assay type: cell-based; details: Homo sapiens, Leukemia
Method: as §1

TK-10 = assay: NCI-60 screen; assay type: cell-based; details: Homo sapiens, Renal Cancer
Method: as §1

UACC-62 = assay: NCI-60 screen; assay type: cell-based; details: Homo sapiens, Melanoma
Method: as §1

UO-31 = assay: NCI-60 screen; assay type: cell-based; details: Homo sapiens, Renal Cancer
Method: as §1

[1] = test system: human peripheral blood lymphocytes not stimulated with PHA; assay: Cytotoxicity in resting PBLs (MTT); assay type: cell-based; details: Lymphocyte, 72 h, mean ± SEM, three experiments, read-out: GI50 PBLresting
Method: (§2) PBLs were obtained from human peripheral blood (leucocyte rich plasma-buffy coats) from healthy volunteers using the Lymphoprep (Fresenius KABI Norge AS) gradient density centrifugation.
(§3) After extensive washing, cells were resuspended (1.0 × 10^6 cells/mL) in RPMI-1640 with 10% fetal bovine serum and incubated overnight. For cytotoxicity evaluations in proliferating PBL cultures, nonadherent cells were resuspended at 5 × 10^5 cells/mL in growth medium, containing 2.5 μg/mL PHA (Irvine Scientific). Different concentrations of the test compounds were added, and viability was determined 72 h later by the MTT test. For cytotoxicity evaluations in resting PBL cultures, nonadherent cells were resuspended (5 × 10^5 cells/mL) and treated for 72 h with the test compounds.

[2] = test system: human peripheral blood lymphocytes stimulated with PHA; assay: Cytotoxicity in PHA-stimulated PBLs (MTT); assay type: cell-based; details: Lymphocyte, 72 h, mean ± SEM, three experiments, read-out: GI50 PBLPHA
Method: as §2, §3

bovine brain tubulin = bovine brain tubulin (Bos taurus, UniProt P81947+Q6B856); assay: Inhibition of tubulin assembly (turbidimetry); assay type: biochemical; details: 9 μM (0.9 mg/mL) tubulin, 20 min at 30 °C; read-out: inhibition of tubulin assembly IC50 ± SD
HeLa cells = assay: Flow cytometric cell cycle distribution; assay type: cell-based; details: 24 h
Method: To evaluate the effects of compounds 63, 66, and 75 on cell cycle progression, we first treated HeLa cells for 24 h.The cells were then labeled with propidium iodide (PI) and analyzed by flow cytometry. As shown in Figure 5 (panel B), compound 66 induced arrest of the cell cycle in the G2/M phase.
5 ×10^5 HeLa cells were treated with different concentrations of the test compounds for 24 h. After the incubation period, the cells were collected, centrifuged, and fixed with ice-cold ethanol (70%). The cells were treated with lysis buffer containing RNase A and 0.1% Triton X-100 and stained with PI. Samples were analyzed on a Cytomic FC500 flow cytometer (Beckman Coulter). DNA histograms were analyzed using MultiCycle for Windows (Phoenix Flow Systems).

tubulin colchicine site = tubulin colchicine site (Bos taurus, UniProt P81947+Q6B856); assay: Inhibition of [3H]colchicine binding to tubulin; details: read-out: inhibition of colchicine binding % inhibition ± SD
HOP-62 = assay: NCI-60 screen; assay type: cell-based; details: Homo sapiens, Non-Small-Cell Lung Cancer
Method: as §1

HOP-92 = assay: NCI-60 screen; assay type: cell-based; details: Homo sapiens, Non-Small-Cell Lung Cancer
Method: as §1

MALME-3M = assay: NCI-60 screen; assay type: cell-based; details: Homo sapiens, Melanoma
Method: as §1

NCI-H23 = assay: NCI-60 screen; assay type: cell-based; details: Homo sapiens, Non-Small-Cell Lung Cancer
Method: as §1

NCI-H322M = assay: NCI-60 screen; assay type: cell-based; details: Homo sapiens, Non-Small-Cell Lung Cancer
Method: as §1

T-47D = assay: NCI-60 screen; assay type: cell-based; details: Homo sapiens, T47D; Breast Cancer
Method: as §1

U251 = assay: NCI-60 screen; assay type: cell-based; details: Homo sapiens, U-251; CNS Cancer
Method: as §1

Chain of bovine brain tubulin (Q6B856 whole entry): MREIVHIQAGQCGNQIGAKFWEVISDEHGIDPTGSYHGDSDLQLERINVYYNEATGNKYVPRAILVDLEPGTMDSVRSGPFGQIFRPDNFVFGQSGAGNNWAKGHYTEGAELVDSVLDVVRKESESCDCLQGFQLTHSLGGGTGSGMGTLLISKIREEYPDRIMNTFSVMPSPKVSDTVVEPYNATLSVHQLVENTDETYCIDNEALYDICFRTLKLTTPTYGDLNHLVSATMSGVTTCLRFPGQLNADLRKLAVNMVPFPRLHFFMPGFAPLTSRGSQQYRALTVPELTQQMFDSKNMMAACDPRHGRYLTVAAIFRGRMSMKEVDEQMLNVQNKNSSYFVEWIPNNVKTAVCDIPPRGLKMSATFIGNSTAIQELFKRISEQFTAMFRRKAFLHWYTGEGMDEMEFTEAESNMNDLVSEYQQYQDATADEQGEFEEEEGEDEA
Chain of bovine brain tubulin (P81947 whole entry): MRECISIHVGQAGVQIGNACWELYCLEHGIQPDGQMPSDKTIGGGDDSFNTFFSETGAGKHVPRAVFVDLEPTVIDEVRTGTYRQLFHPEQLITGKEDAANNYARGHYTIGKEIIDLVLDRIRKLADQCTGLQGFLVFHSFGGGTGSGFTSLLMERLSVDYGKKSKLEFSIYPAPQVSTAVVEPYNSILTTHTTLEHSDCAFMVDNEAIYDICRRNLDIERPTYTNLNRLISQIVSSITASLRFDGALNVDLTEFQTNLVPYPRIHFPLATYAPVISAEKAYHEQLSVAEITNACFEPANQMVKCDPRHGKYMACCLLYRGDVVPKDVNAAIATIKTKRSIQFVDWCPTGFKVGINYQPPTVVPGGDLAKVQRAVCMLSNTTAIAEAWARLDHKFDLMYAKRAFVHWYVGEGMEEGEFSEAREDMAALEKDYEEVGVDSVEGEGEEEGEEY
Chain of tubulin colchicine site (Q6B856 whole entry): as the sequence (Q6B856 whole entry) above
Chain of tubulin colchicine site (P81947 whole entry): as the sequence (P81947 whole entry) above

Structure (SMILES)	GI50 (786–0)	GI50 (BT-549)	GI50 (HCC-2998)	GI50 (HCT-116)	GI50 (HS 578T)	GI50 (MCF7)	GI50 (MDA-MB-468)	GI50 (MOLT-4)	GI50 (NCI/ADR-RES)	GI50 (OVCAR-4)	GI50 (OVCAR-5)	GI50 (OVCAR-8)	GI50 (RXF 393)	GI50 (SF-295)	GI50 (SF-539)	GI50 (SK-MEL-28)	GI50 (SK-MEL-5)	GI50 (SN12C)	GI50 (SNB-19)	GI50 (SNB-75)	other results
CCOC(=O)c1cc2c(n1Cc1cc(OC)cc(OC)c1)-c1oncc1CCC2 [Compound 66, Ethyl 9-(3,5-Dimethoxybenzyl)-4,5,6,9-tetrahydropyrrolo[2′,3′:3,4]cyclohepta[1,2-d][1,2]oxazole-8-carboxylate]	50 nM	1720 nM	230 nM	40 nM	40 nM	30 nM	30 nM	260 nM	30 nM	13400 nM	180 nM	80 nM	20 nM	30 nM	30 nM	90 nM	40 nM	70 nM	150 nM	30 nM	GI50 (A549/ATCC): 60 nM; GI50 (SK-MEL-2): 40 nM; GI50 (SR): 30 nM; GI50 (TK-10): > 100000 nM; GI50 (UACC-62): 70 nM; GI50 (UO-31): 50 nM; GI50 [1]: > 100000 nM; GI50 [2]: > 100000 nM; IC50 (bovine brain tubulin): 2600 ± 30 nM; concentration at which G2/M arrest first occurred (HeLa cells): 0.125 µM; cells arrested in G2/M (HeLa cells; 0.5 μM): over 80%; inhibition at 5 µM (tubulin colchicine site): 62 ± 2%
CCOC(=O)c1cc2c(n1Cc1ccccc1OC)-c1oncc1CCC2 [Compound 62, Ethyl 9-(2-Methoxybenzyl)-4,5,6,9-tetrahydropyrrolo[2′,3′:3,4]cyclohepta[1,2-d][1,2]oxazole-8-carboxylate]	> 100000 nM	7730 nM	> 100000 nM	3790 nM	3380 nM	710 nM	2950 nM	5680 nM	1360 nM	9350 nM	> 100000 nM	3850 nM	2080 nM	1380 nM	2480 nM	> 100000 nM	2610 nM	> 100000 nM	64700 nM	1970 nM	GI50 (HOP-62): 1890 nM; GI50 (HOP-92): 300 nM; GI50 (MALME-3M): 3080 nM; GI50 (NCI-H23): 8520 nM; GI50 (NCI-H322M): 5230 nM; GI50 (SR): 430 nM; GI50 (T-47D): 2460 nM; GI50 (TK-10): 67800 nM; GI50 (U251): 3780 nM; GI50 (UACC-62): 3370 nM; GI50 (UO-31): 6530 nM
CCOC(=O)c1cc2c(n1Cc1cc(OC)c(OC)c(OC)c1)-c1oncc1CCC2 [Compound 67, Ethyl 9-(3,4,5-Trimethoxybenzyl)-4,5,6,9-tetrahydropyrrolo[2′,3′:3,4]cyclohepta[1,2-d][1,2]oxazole-8-carboxylate]	970 nM	290 nM	300 nM	190 nM	340 nM	40 nM	740 nM	390 nM	60 nM	720 nM	530 nM	240 nM	120 nM	440 nM	120 nM	300 nM	170 nM	760 nM	560 nM	70 nM	GI50 (HOP-62): 170 nM; GI50 (MALME-3M): 50 nM; GI50 (NCI-H23): 370 nM; GI50 (NCI-H322M): 320 nM; GI50 (SR): 40 nM; GI50 (T-47D): 100 nM; GI50 (TK-10): 64900 nM; GI50 (U251): 140 nM; GI50 (UACC-62): 50 nM; GI50 (UO-31): 80 nM; IC50 (bovine brain tubulin): 4600 ± 800 nM; inhibition at 5 µM (tubulin colchicine site): 25 ± 0.01%
